In ChEMBL document CHEMBL4507277:

Assays:
Conditions in all cases: Compound concentration 1000.0 nM
[1] = biological target: Mitogen-activated protein kinase kinase kinase 19 (Homo sapiens) (UniProt Q56UN5)
[2] = test system: Tyrosine-protein kinase ABL1 (Homo sapiens), P00519 [H396P]
[3] = biological target: Casein kinase I isoform gamma-2 (Homo sapiens) (UniProt P78368)
[4] = biological target: Atypical kinase COQ8A, mitochondrial (Homo sapiens) (UniProt Q8NI60)
[5] = biological target: Dual specificity protein kinase CLK3 (Homo sapiens) (UniProt P49761)
[6] = biological target: Serine/threonine-protein kinase WNK2 (Homo sapiens) (UniProt Q9Y3S1)
[7] = biological target: Serine/threonine-protein kinase MAK (Homo sapiens) (UniProt P20794)
[8] = biological target: Testis-specific serine/threonine-protein kinase 3 (Homo sapiens) (UniProt Q96PN8)
[9] = biological target: Serine/threonine-protein kinase 4 (Homo sapiens) (UniProt Q13043)
[10] = biological target: SRSF protein kinase 1 (Homo sapiens) (UniProt Q96SB4)
[11] = test system: Proto-oncogene tyrosine-protein kinase receptor Ret (Homo sapiens), P07949 [V804L]
[12] = biological target: Serine/threonine-protein kinase 24 (Homo sapiens) (UniProt Q9Y6E0)
[13] = biological target: Serine/threonine-protein kinase 32A (Homo sapiens) (UniProt Q8WU08)
[14] = biological target: Mitogen-activated protein kinase kinase kinase 9 (Homo sapiens) (UniProt P80192)
[15] = biological target: Serine/threonine-protein kinase pim-3 (Homo sapiens) (UniProt Q86V86)
[16] = biological target: Casein kinase II subunit alpha (Homo sapiens) (UniProt P68400)
[17] = biological target: Calcium/calmodulin-dependent protein kinase type II subunit beta (Homo sapiens) (UniProt Q13554)
[18] = test system: Phosphatidylinositol 4,5-bisphosphate 3-kinase catalytic subunit alpha isoform (Homo sapiens), P42336 [H1047L]
[19] = biological target: STE20/SPS1-related proline-alanine-rich protein kinase (Homo sapiens) (UniProt Q9UEW8)
[20] = test system: Hepatocyte growth factor receptor (Homo sapiens), P08581 [Y1235D]
[21] = biological target: Serine/threonine-protein kinase WNK3 (Homo sapiens) (UniProt Q9BYP7)
[22] = biological target: Mitogen-activated protein kinase kinase kinase 6 (Homo sapiens) (UniProt O95382)
[23] = biological target: AP2-associated protein kinase 1 (Homo sapiens) (UniProt Q2M2I8)
[24] = biological target: Mitogen-activated protein kinase kinase kinase 15 (Homo sapiens) (UniProt Q6ZN16)
[25] = biological target: Rho-associated protein kinase 1 (Homo sapiens) (UniProt Q13464)
[26] = biological target: Casein kinase I isoform delta (Homo sapiens) (UniProt P48730)
[27] = biological target: Ribosomal protein S6 kinase alpha-5 (Homo sapiens) (UniProt O75582)
[28] = biological target: Discoidin domain-containing receptor 2 (Homo sapiens) (UniProt Q16832)
[29] = biological target: Serine/threonine-protein kinase SIK1 (Homo sapiens) (UniProt P57059)
[30] = biological target: 1-phosphatidylinositol 3-phosphate 5-kinase (Homo sapiens) (UniProt Q9Y2I7)
[31] = biological target: Activated CDC42 kinase 1 (Homo sapiens) (UniProt Q07912)
[32] = biological target: Fibroblast growth factor receptor 2 (Homo sapiens) (UniProt P21802)
[33] = test system: Epidermal growth factor receptor (Homo sapiens), P00533 [G719C]
[34] = biological target: Aurora kinase B (Homo sapiens) (UniProt Q96GD4)
[35] = biological target: Mitogen-activated protein kinase kinase kinase kinase 5 (Homo sapiens) (UniProt Q9Y4K4)
[36] = biological target: Serine/threonine-protein kinase NIM1 (Homo sapiens) (UniProt Q8IY84)
[37] = biological target: Non-receptor tyrosine-protein kinase TNK1 (Homo sapiens) (UniProt Q13470)
[38] = biological target: Ribosomal protein S6 kinase alpha-2 (Homo sapiens) (UniProt Q15349)
[39] = biological target: Serine/threonine-protein kinase VRK2 (Homo sapiens) (UniProt Q86Y07)
[40] = biological target: Protein-tyrosine kinase 2-beta (Homo sapiens) (UniProt Q14289)
[41] = biological target: Non-receptor tyrosine-protein kinase TYK2 (Homo sapiens) (UniProt P29597)
[42] = biological target: Receptor-interacting serine/threonine-protein kinase 4 (Homo sapiens) (UniProt P57078)
[43] = biological target: Phosphatidylinositol 4-phosphate 3-kinase C2 domain-containing subunit beta (Homo sapiens) (UniProt O00750)
[44] = test system: Mast/stem cell growth factor receptor Kit (Homo sapiens), P10721 [D816H]
[45] = biological target: Ephrin type-A receptor 7 (Homo sapiens) (UniProt Q15375)

Measured: residual activity

Chain of Activated CDC42 kinase 1 (Homo sapiens) (Q07912 whole entry, looked up): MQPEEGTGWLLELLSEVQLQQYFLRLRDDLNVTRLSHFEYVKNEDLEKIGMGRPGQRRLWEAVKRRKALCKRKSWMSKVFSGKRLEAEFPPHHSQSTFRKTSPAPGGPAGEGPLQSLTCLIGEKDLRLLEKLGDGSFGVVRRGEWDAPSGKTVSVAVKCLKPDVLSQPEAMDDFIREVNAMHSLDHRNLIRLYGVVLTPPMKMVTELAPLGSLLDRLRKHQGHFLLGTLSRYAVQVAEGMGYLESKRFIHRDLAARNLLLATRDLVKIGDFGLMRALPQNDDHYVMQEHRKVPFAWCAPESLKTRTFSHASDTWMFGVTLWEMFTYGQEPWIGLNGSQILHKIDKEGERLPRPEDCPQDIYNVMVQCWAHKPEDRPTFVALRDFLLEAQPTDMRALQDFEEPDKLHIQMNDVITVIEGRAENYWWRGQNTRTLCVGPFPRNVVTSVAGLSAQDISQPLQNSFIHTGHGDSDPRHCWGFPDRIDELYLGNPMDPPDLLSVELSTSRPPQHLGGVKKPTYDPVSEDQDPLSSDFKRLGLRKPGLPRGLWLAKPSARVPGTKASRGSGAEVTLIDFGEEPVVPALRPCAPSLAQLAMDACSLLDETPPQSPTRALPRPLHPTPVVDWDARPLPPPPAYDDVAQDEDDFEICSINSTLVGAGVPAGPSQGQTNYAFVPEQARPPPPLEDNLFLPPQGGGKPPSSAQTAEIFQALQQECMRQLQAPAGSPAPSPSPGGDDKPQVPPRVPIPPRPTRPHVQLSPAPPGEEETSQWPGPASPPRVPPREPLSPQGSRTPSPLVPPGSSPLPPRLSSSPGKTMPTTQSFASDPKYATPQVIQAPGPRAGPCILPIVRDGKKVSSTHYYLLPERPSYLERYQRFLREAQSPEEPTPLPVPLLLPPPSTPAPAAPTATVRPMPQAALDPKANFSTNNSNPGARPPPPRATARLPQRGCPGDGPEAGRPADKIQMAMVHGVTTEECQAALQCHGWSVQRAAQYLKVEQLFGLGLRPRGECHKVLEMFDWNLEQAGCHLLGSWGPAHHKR
Chain of Aurora kinase B (Homo sapiens) (Q96GD4 whole entry): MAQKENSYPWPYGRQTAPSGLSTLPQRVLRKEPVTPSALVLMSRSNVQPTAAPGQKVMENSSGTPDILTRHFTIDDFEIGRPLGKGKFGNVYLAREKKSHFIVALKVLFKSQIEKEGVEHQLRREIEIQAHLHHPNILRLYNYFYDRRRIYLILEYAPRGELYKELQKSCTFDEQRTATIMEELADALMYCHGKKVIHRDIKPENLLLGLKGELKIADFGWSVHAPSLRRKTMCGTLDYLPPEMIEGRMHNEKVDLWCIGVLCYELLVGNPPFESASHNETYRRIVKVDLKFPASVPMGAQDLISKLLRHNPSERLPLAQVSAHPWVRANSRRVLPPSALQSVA
Chain of 1-phosphatidylinositol 3-phosphate 5-kinase (Homo sapiens) (Q9Y2I7 whole entry): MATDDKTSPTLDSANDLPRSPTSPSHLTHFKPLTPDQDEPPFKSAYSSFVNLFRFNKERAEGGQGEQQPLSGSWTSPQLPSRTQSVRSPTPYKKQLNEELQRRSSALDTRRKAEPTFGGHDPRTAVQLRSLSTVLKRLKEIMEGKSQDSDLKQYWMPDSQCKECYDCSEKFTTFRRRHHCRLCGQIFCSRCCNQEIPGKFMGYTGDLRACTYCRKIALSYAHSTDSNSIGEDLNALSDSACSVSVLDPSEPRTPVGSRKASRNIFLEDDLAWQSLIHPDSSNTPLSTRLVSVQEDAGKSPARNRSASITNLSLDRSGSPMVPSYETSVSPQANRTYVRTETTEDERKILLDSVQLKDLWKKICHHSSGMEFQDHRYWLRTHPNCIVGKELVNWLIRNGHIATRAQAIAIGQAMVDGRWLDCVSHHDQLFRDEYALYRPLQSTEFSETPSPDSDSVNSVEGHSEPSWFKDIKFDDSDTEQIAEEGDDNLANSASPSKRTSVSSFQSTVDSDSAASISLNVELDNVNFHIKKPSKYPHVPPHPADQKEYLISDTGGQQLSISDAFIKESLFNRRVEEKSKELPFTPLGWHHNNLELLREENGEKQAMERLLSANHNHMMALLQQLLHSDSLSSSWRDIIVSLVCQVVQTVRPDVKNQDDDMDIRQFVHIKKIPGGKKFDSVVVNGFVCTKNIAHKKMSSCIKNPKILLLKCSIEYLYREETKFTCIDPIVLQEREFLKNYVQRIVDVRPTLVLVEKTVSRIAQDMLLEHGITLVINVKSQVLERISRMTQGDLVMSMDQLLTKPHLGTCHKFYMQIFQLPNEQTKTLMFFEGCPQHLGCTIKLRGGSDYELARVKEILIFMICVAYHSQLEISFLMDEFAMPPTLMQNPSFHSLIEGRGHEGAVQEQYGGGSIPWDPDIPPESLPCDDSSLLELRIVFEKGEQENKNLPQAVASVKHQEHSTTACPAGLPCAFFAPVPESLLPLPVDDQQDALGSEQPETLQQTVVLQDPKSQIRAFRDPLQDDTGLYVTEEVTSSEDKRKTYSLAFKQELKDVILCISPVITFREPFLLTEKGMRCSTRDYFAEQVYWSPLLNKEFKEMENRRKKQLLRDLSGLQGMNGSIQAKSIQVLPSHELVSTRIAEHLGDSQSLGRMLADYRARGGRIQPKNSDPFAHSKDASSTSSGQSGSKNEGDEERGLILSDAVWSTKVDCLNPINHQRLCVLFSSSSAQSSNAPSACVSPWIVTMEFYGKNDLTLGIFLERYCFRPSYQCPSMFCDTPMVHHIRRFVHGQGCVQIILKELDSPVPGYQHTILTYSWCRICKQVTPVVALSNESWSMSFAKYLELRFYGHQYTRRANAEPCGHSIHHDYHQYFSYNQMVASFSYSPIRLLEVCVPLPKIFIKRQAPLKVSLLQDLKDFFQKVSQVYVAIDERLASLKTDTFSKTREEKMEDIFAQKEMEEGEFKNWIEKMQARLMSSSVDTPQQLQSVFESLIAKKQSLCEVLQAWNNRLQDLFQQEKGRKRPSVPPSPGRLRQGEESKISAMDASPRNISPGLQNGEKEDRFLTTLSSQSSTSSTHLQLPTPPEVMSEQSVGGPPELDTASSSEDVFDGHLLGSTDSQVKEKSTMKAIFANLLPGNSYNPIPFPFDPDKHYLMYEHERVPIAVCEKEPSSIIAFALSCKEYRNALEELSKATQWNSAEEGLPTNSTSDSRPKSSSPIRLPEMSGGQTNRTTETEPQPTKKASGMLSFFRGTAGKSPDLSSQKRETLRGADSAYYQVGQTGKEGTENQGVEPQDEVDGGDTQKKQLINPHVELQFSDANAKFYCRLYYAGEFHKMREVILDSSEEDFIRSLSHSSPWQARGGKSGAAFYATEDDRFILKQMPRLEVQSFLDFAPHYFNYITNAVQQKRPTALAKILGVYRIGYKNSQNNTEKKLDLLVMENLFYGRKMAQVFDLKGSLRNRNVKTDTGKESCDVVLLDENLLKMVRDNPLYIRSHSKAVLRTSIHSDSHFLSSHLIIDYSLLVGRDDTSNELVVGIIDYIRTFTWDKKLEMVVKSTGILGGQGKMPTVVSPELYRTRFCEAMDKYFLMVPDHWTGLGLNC
Chain of Receptor-interacting serine/threonine-protein kinase 4 (Homo sapiens) (P57078 whole entry, the tested form may be a part): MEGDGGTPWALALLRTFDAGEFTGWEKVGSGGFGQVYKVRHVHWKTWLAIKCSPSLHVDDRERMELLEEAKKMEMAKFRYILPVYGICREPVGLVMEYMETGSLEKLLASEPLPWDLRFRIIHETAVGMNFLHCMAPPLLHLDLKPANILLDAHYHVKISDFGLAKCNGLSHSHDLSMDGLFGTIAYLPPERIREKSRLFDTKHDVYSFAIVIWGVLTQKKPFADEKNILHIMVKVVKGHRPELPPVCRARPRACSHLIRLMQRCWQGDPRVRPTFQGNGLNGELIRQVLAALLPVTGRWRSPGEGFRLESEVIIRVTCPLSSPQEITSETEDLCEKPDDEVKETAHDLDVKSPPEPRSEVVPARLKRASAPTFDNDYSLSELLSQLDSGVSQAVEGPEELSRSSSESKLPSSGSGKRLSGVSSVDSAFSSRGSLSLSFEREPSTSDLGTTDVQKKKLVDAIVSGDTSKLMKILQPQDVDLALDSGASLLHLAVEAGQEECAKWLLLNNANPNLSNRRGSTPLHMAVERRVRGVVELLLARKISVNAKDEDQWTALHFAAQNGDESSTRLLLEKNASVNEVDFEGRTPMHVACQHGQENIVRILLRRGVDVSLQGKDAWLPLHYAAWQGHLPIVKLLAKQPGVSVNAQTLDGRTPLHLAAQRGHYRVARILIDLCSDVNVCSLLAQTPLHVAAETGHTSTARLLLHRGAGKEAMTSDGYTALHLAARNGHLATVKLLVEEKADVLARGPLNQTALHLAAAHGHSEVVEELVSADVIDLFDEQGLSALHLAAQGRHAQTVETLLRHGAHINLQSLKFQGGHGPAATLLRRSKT
Chain of SRSF protein kinase 1 (Homo sapiens) (Q96SB4 whole entry): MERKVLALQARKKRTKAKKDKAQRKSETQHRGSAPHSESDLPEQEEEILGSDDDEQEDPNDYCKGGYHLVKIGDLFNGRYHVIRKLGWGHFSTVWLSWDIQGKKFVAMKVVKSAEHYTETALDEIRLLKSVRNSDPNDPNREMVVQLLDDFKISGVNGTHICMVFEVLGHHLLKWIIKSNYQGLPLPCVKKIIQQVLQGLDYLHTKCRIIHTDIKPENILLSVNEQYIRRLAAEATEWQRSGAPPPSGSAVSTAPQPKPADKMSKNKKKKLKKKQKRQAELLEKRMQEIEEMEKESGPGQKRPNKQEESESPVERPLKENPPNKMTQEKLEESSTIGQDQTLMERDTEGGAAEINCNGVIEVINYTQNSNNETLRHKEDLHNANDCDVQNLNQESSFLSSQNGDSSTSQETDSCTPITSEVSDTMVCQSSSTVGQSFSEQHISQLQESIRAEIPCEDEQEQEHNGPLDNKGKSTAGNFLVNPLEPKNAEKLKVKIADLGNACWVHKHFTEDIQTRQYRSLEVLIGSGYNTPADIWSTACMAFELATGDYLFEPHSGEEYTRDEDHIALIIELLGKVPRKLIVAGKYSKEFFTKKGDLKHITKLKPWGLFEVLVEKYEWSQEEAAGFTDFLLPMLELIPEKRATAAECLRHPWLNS

CCS(=O)(=O)c1cc2cc(C[C@@](O)(CC(C)(C)c3ccc(F)cc3C(N)=O)C(F)(F)F)[nH]c2cn1
inactive: [1] 76% | [2] 99% | [3] 95% | [4] 95% | [5] 100% | [7] 100% | [8] 96% | [9] 100% | [10] 90% | [11] 96% | [13] 77% | [14] 96% | [15] 100% | [16] 75% | [17] 100% | [18] 97% | [19] 84% | [20] 100% | [21] 100% | [22] 100% | [23] 100% | [24] 57% | [25] 69% | [26] 100% | [27] 100% | [28] 100% | [29] 100% | [30] 69% | [31] 100% | [32] 95% | [33] 100% | [34] 71% | [35] 99% | [36] 51% | [37] 100% | [39] 80% | [40] 100% | [41] 82% | [42] 100% | [43] 86% | [44] 51% | [45] 94%
active: [6] 46% | [12] 0% | [38] 0%

CCS(=O)(=O)c1cc2cc(C[C@](O)(CC(C)(C)c3ccc(F)cc3C(N)=O)C(F)(F)F)[nH]c2cn1
inactive: [1] 93% | [2] 100% | [3] 93% | [4] 92% | [5] 100% | [6] 100% | [7] 100% | [8] 100% | [9] 100% | [10] 83% | [11] 100% | [12] 86% | [13] 84% | [14] 98% | [15] 100% | [16] 100% | [17] 97% | [18] 96% | [19] 100% | [20] 100% | [21] 100% | [22] 55% | [23] 100% | [24] 97% | [25] 84% | [26] 96% | [27] 94% | [28] 88% | [29] 100% | [30] 97% | [31] 100% | [32] 100% | [33] 100% | [34] 92% | [35] 100% | [36] 100% | [37] 98% | [38] 81% | [39] 100% | [40] 100% | [41] 100% | [42] 93% | [43] 89% | [44] 98% | [45] 86%
